Laboratory results as given in US20240226054A9, “AGENTS AND METHODS FOR PREVENTING AND TREATING SKELETAL MUSCLE DISEASES” (The Regents Of the University of California, priority 2022, published 2024).
“Also recorded” adds a separate entry of the source. Read-outs that look alike come from different tables or passages of the source.

Key:
[1] = system: soleus muscle from the Nav1.4-R669H mouse; type: cell-based
Method: (§1) Mouse Model of HypoPP. Knock-in mutant mouse models of HypoPP were previously generated; Type 1 with a missense mutation of the Cav1.1 calcium channel (Cacnals p.R528H) and Type 2 with a missense mutation of the Nav1.4 sodium channel (Scn4a p.R663H) homologous to the p.R669H missense mutation in patients with HypoPP Type 2. Mutant mice have a robust HypoPP phenotype with loss of force and paradoxical depolarization of skeletal muscle in response to a challenge in low extracellular [K^+] (<3 mM) or to intravenous administration of insulin plus glucose.
Ex vivo Contraction Studies. The outcome measure for susceptibility to HypoPP was the peak isometric force of the soleus muscle, in response to a tetanic stimulation, as previously described. In brief, after euthanizing the animal, the extensor digitorum longus (EDL) muscle or the soleus muscle was dissected free and suspended in a tissue bath held at 37° C. […] Muscles were suspended in a bicarbonate-buffered bath that was bubbled continuously with 5% CO2/95% 02 to maintain a pH of 7.4. The standard bath consisted of (in mM): 118 NaCl, 4.75 KCl, 1.18 MgSO4, 2.54 CaCl2), 1.18 NaH2PO4, 10 glucose, and 24.8 NaHCO3. The low-K^+ solution was identical, except for the reduction of KCl to 2 mM by replacement with NaCl. The osmolality of all solutions was 290 mOsm. Retigabine (gift from Prof. M. Taglialatela, Univ. […] The Kv7 inhibitor, XE991 (Sigma-Aldrich), was prepared in as a 100 mM DMSO stock solution and applied to muscle in a […] bath solution.
Electrical stimulation was applied by a pair of platinum wires, oriented perpendicular to the long axis of the soleus muscle. Suprathreshold stimulation (80 mA) was applied as a tetanic burst (40 pulses, 0.4 msec, at 100 Hz), under computer control. All bath solutions contained 0.25 mM D-tubocurarine (Sigma-Aldrich) to prevent any contribution to muscle excitation from motor nerve endings. Muscle force was measured with a stiff strain gain (Forte 25, World Precision Instruments) and digitally sampled at 5 KHz. Muscle contractility was monitored by measuring the peak isometric force every two minutes, and test solutions were applied by complete exchange of the bath solution.
The efficacy of potassium channel openers to prevent the loss of force in HypoPP muscle was assessed by measuring isometric contractions, ex vivo, in both control (4.7 mM) and low extracellular [K^+] (2.0 mM). The HypoPP phenotype is shown for the drug-free responses of the soleus muscle from an Nav1.4-R669H mouse in the left panel of FIG. 1A. The peak isometric force during the tetanic contraction (100 Hz stimulation) was initially 11.7 gm in control [K^+], and then decreased to 7.6 gm (35% decrease) after 4 min. in 2 mM [K^+]. The loss of force is reversible, upon return to 4.7 mM [K^+] (e.g., see FIG. 1B).
A method to quantify the extent of protection from loss of force by retigabine is illustrated in FIG. 2. This example was selected to illustrate the maximum variability in the extent of protection for the oscillations of soleus muscle force within a single trial (compare the responses at 24 min to those at 40 min.). […] The relative protection was calculated from the responses for each pair of soleus muscles from the same mouse serving as an internal control. In almost every trial (22 out of 24), two clear minima occurred during the 30 min. low-K^+ challenge. The relative protection for the retigabine response, defined as 1−(force loss in retigabine)/(force loss in control) was calculated for each of the two minima, and the average value was used as the quantitative estimate for the retigabine protection in that trial. Each soleus muscle was used for only a single trial (i.e. control or retigabine) because cumulative effects and run-down may occur if this long protocol (typically 70 min.) was repeated.

[2] = system: EDL muscle from the Cav1.1-R528H mouse; experiment: Ex vivo contraction test, low-K+ challenge, HypoPP EDL muscle; type: cell-based
Method: as §1
Ex vivo Contraction Studies. The outcome measure for susceptibility to HypoPP was the peak isometric force of the soleus muscle, in response to a tetanic stimulation, as previously described. In brief, after euthanizing the animal, the extensor digitorum longus (EDL) muscle or the soleus muscle was dissected free and suspended in a tissue bath held at 37° C. […] Muscles were suspended in a bicarbonate-buffered bath that was bubbled continuously with 5% CO2/95% 02 to maintain a pH of 7.4. The standard bath consisted of (in mM): 118 NaCl, 4.75 KCl, 1.18 MgSO4, 2.54 CaCl2), 1.18 NaH2PO4, 10 glucose, and 24.8 NaHCO3. […]
Electrical stimulation was applied by a pair of platinum wires, oriented perpendicular to the long axis of the soleus muscle. […] Muscle force was measured with a stiff strain gain (Forte 25, World Precision Instruments) and digitally sampled at 5 KHz. Muscle contractility was monitored by measuring the peak isometric force every two minutes, and test solutions were applied by complete exchange of the bath solution.
A method to quantify the extent of protection from loss of force by retigabine is illustrated in FIG. 2. […] The relative protection was calculated from the responses for each pair of soleus muscles from the same mouse serving as an internal control. […] The relative protection for the retigabine response, defined as 1−(force loss in retigabine)/(force loss in control) was calculated for each of the two minima, and the average value was used as the quantitative estimate for the retigabine protection in that trial. […]

[3] = system: EDL fibers from the Nav1.4-R669H mouse; experiment: Membrane potential measurements (resting potential, microelectrode impalement); type: cell-based
Method: Membrane Potential Measurements. The membrane potential was recorded by impalement of superficial fibers from an ex vivo whole mount of the EDL muscle. Long-duration stable recording of the resting potential was achieved by using an orthogonal approach to the fiber with fine-tipped microelectrodes (resistance of 15-20 MW, filled with 3 M KCl). The bath solution was the same as that used for the ex vivo contraction studies, continuously bubbled with 5% CO2/95% O2, with a flow rate of ˜3 ml/min of the 0.3 ml recording chamber.
The impairment of contraction during an episode of HypoPP is caused by sustained depolarization, which inactivates sodium channels and reduces muscle fiber excitability. In HypoPP, ictal depolarization of the resting potential (Vrest) paradoxically occurs in low K^+ that would normally hyperpolarize the membrane from a negative shift of the K^+ Nernst potential (EK). It was tested whether retigabine prevents or reverses this paradoxical depolarization of HypoPP fibers exposed to low K^+. […] Reduction of K^+ to 2 mM or even 1 mM caused hyperpolarization of WT fibers, as expected from the negative shift of EK (FIG. 5A, gray shaded regions). At an extremely low K^+ of 0.5 mM, even WT fibers paradoxically depolarized (magenta region) as previously described. For EDL fibers from the Nav1.4-R669H mouse, the more modest K^+ reductions to 2 mM or 1 mM elicited paradoxical depolarization, which is the membrane potential equivalent of ictal HypoPP. […] These observations support the view that the beneficial effects of retigabine occur by a stabilizing effect on the normally polarized value of Vrest.

[4] = system: pharmacological model of Andersen-Tawil Syndrome (barium blocks Kir potassium channels); experiment: Low K challenge in pharmacological model of Andersen-Tawil Syndrome (50 μM barium); type: cell-based; details: pre-administration of 10 μM retigabine
Method: A pharmacological model of Andersen-Tawil Syndrome (ATS) is created, in vitro, with a low concentration of barium (50 μM), which blocks Kir potassium channels. Kir2.1 is deficient from loss of function mutations of the KCNJ2 gene in ATS.

[5] = system: soleus muscle obtained from the knock-in mutant mouse model of HyperPP; experiment: In vitro contraction test, high K challenge, HyperPP soleus muscle; type: cell-based
Method: The two paired muscles (left and right) were tested in separate organ baths. […] At 40 min into the study, a high K challenge was performed by exchanging the 4.7 mM K+ bath with one containing 10 mM K+.

Kv7.1 = Kv7.1 (Homo sapiens, UniProt P51787); details: cited from earlier work
[6] = cited from earlier work
[7] = system: mouse muscle (mouse models of myotonia); details: cited from earlier work
mouse = details: 30 mg/kg retigabine; cited from earlier work
rat = details: 30 mg/kg retigabine; cited from earlier work
[8] = chronic use as antiepileptic, cited from earlier work
human HypoPP muscle = details: 100 mM pinacidil; cited from earlier work

Chain of Kv7.1 (P51787 whole entry): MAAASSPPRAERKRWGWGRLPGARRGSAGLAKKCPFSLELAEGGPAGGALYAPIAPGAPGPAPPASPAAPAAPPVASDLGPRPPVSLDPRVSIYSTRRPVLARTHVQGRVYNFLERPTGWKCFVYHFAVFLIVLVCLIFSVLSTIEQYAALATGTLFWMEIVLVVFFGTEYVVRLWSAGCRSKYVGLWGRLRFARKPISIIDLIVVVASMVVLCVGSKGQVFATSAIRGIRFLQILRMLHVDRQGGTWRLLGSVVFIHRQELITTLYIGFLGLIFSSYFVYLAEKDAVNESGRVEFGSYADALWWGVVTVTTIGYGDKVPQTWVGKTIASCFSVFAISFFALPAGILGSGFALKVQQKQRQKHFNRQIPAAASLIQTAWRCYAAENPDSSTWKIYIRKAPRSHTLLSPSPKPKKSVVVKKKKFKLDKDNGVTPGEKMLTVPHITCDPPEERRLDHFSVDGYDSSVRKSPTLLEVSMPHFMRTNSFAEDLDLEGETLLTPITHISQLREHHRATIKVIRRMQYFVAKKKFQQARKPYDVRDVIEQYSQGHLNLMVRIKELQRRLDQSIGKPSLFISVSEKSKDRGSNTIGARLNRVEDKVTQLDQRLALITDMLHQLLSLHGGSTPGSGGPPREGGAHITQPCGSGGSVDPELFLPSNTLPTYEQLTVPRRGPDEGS

Compound: CCOC(=O)Nc1ccc(NCc2ccc(F)cc2)cc1N [retigabine, ethyl [2-amino-4-[[(4-fluorophenyl)methyl]amino]phenyl]carbamate]
- protection from low-K+ induced loss of force ([1]; 1 μM retigabine pre-treatment): substantial protection
- loss of peak force during 30 min challenge with 2 mM K+ ([1]; 2 μM retigabine pre-treatment): markedly attenuated the loss of peak force
- trials with enhanced recovery ([1]; 10 μM retigabine applied during 2 mM K+): 5 of 6
- relative peak force, sustained value after recovery ([1]; 10 μM retigabine in 2 mM K+, soleus): 0.83
- protection from low-K+ induced loss of force ([1]; 10 μM retigabine pre-treatment, K+ 4.7 mM to 2 mM): completely suppressed any detectable loss of force
- relative force in the 2 mM [K+] challenge ([1]; 10 μM retigabine pre-treatment, representative responses FIG. 1B): > 0.85
- improved level of tetanic force in retigabine, of baseline ([1]; 10 μM retigabine, still in 2 mM K+ bath, n=3): 83.2%
- relative force before the low-K+ challenge on addition of retigabine ([1]; 0.1 to 20 mM, Nav1.4-R669H soleus): not affected
- baseline force in 4.7 mM K+ ([1]; bath containing 10 μM retigabine): unchanged
- impairment of peak isometric force ([1]; up to 20 μM retigabine, 400 msec tetanic contraction every two minutes for two hrs): no impairment
- relative peak force, sustained value after recovery ([2]; 10 μM retigabine in 2 mM K+, EDL): 0.83
- recovery from on-going loss of force in low K+ ([2]; 10 μM retigabine, vs contralateral control): Rescue; also recorded: induced a recovery of relative peak force
- relative force before the low-K+ challenge on addition of retigabine ([2]; 0.1 to 20 mM, Cav1.1-R528H EDL): not affected
- Vrest of normally polarized muscle fibers ([3]; 4.7 K+, retigabine added): does not affect Vrest
- resting potential of paradoxically depolarized HypoPP fibers (rescue) ([3]; retigabine added while low K+ unchanged): repolarized to the normal Vrest; also recorded: induced fiber repolarization
- paradoxical depolarization of HypoPP fibers during low K+ challenge (protection) ([3]; retigabine applied before low K+ (1.0 or 2.0 mM)): prevented the paradoxical depolarization
- prevention of loss of muscle force with a low K challenge (2 mM) [4]: effective a preventing the loss of muscle force
- attenuation of the loss of force ([5]; 10 μM retigabine pre-treatment, 10 mM K+ challenge): about 50%
- maximal force after retigabine before challenge (relative) ([5]; 10 μM retigabine, 4.7 mM K+): about 1.0
- prevention of loss of force in HyperPP model ([5]; retigabine (10 μM)): partially effective
- recovery of force on return of bath K+ to 4.7 mM ([5]; retigabine exposed muscle): full recovery of force
- sensitivity of Kv7.1 to retigabine relative to Kv7.2-Kv7.5 (fold less sensitive) (Kv7.1): 100 fold
- protein binding (assumed) ([6]; assumption for unbound fraction): 80%
- Cmax ([6]; single 100 mg oral dose): 390 ng/mL
- half-life ([6]; single 100 mg oral dose): 8 h
- fiber input resistance, resting potential or action potential properties (current-clamp) ([7]; 20 mM retigabine): did not detect a change
- reduction of ex vivo tetanic force ([7]; 20 or 30 mM retigabine): did not report a reduction
- after-discharges in mouse models of myotonia ([7]; low-dose retigabine): suppresses after-discharges
- force with tetanic contractions lasting seconds (mouse): loss of force
- force with tetanic contractions lasting seconds (rat): loss of force
- side effects leading to discontinuation [8]: skin discoloration
- side effects leading to discontinuation ([8]; listed as Retigabine): skin discoloration and eye abnormalities

Compound: Cc1cc(N2CCc3cc(F)ccc3C2)cc(C)c1NC(=O)CC(C)(C)C [XEN1101, N-[4-(6-fluoro-3,4-dihydro-1H-isoquinolin-2-yl)-2,6-dimethylphenyl]-3,3-dimethylbutanamide]
- increase in baseline force ([1]; XEN1101 10 μM at 10 min): 20%

Compound: CC(N/C(=N\C#N)Nc1ccncc1)C(C)(C)C (centres unmarked) [pinacidil]
- protection from loss of force in a low-K+ challenge ([1]; pinacidil pre-treatment): protects HypoPP muscle from a loss of force
- protection against loss of force (human HypoPP muscle): protect against loss of force
